In article PMC3973950, “Synthesis of 5-arylidine amino-1,3,4-thiadiazol-2-[(N-substituted benzyol)]sulphonamides endowed with potent antioxidants and anticancer activity induces growth inhibition in HEK293, BT474 and NCI-H226 cells” (Medicinal Chemistry Research, 2013):

What was measured:
[1] = Total antioxidant activity (ABTS radical cation scavenging); assay type: biochemical; conditions: Conc. ± SD; three independent experiments in duplicate; standard trolox; read-out: IC50 inhibitory concentration, ABTS^+ radical
Method: The ability of the test sample to scavenge 2,2′-azinobis-(3-ethylbenzothiazoline-6-sulphonic acid) (ABTS^·+) radical cation was compared with 6-hydroxy-2,5,7,8-tetramethylchroman-2-carboxylic acid (trolox) standard (Chang et al., [2007]; Erel, [2004]; Re et al., [1999]). The ABTS^·+ radical cation was pregenerated by mixing ABTS stock solution (7 mM) with potassium persulphate (2.45 mM) (final concentration) and incubating for 12–16 h in the dark at room temperature until the reaction was complete and the absorbance was stable. The absorbance of the ABTS^·+ solution was equilibrated to 0.70 (±0.02) by diluting with water at room temperature, then 1 mL of solution was mixed with 10 μL of the test sample (0.05–10 mg/mL), and the absorbance was measured at 734 nm after 6 min. All experiments were repeated three times. The percentage inhibition of absorbance was calculated and plotted as a function of the concentration of standard and sample to determine the trolox equivalent antioxidant concentration (TEAC). To calculate the TEAC, the gradient of the plot for the sample was divided by the gradient of the plot for trolox. The IC50 inhibitory concentration (nM/mL) values of tested compounds are depicted in Table 1. The ABTS^·+ radical scavenging activity of the samples was expressed as S%=[(Acontrol-Asample)/Acontrol]×100 where A control is the absorbance of the blank control (ABTS^·+ solution without test sample), and A sample is the absorbance of the test sample.

[2] = DPPH radical scavenging activity; assay type: biochemical; conditions: Conc. ± SD; standard ascorbic acid; read-out: IC50 inhibitory concentration, DPPH radical
Method: Compounds of SC series were evaluated for their in vitro free radical scavenging activities by 2,2-diphenyl-1-picrylhydrazyl (DPPH) assay method (Blois, [1958]; Shishoo et al., [1999]; Chhajed et al., [2007]). To determine the free radical scavenging activity, a method based on the reduction of a methanolic solution of the coloured DPPH radical was used. To a set of test tubes containing methanol (3 mL), DPPH reagent (2 mg/mL) (50 μL) was added. The initial absorbance was measured. To these test tubes, methanolic solution of different test solutions (1 mg/mL) were added (10–50 μL). Ascorbic acid (0.5 mg/mL) was also added in the concentration of 10, 20, 30, 40, 50 and 100 μL. After 20 min, absorbance was recorded at 516 nm. The experiment was performed in triplicate. The percentage reduction in absorbance was calculated from the initial and final absorbance of each solution (Dhar and Taploo, [1982]).

[3] = Superoxide anion radical scavenging (NBT/NADH/PMS); assay type: biochemical; conditions: Conc. ± SD; standard catechin; read-out: IC50 inhibitory concentration, Superoxide anion
Method: Measurement of superoxide anion scavenging activity of the synthesized compound was taken based on the method described by Nishimiki et al. ([1972]) and slightly modified. […] The reaction mixture was incubated at 25 °C for 5 min, and the absorbance at 560 nm was measured against blank samples. Catechin was used as reference compound. All the experiments were performed in triplicate, and the results were averaged. The percentage of inhibition was determined by comparing the results of control and test samples. The IC50 (nM/mL) value are depicted in Table 1.

[4] = In vitro cytotoxicity by MTT assay, HEK 293; assay type: cell-based, human; conditions: human, HEK 293 cells, read-out: % cytotoxicity (100 − % cell survival) of HEK 293 cell line
How it was run: (§1)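 RPMI-1640, 10 % newborn calf serum; ~10,000 cells/well, 24 h attachment; compound 72 h, 37 °C, 5 % CO2; MTT 4 h; propanol; A490.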

[5] = system: NCI-H226 (lung cancer cell line); experiment: In vitro cytotoxicity by MTT assay, NCI-H226; assay type: cell-based; conditions: Homo sapiens, 72 h, read-out: % Cytotoxicity (100 − % cell survival) of NCI-H226 cell line; for cytotoxicity at 0.005 µM: NCI-H226, 0.005 μM; for cytotoxicity at 0.045 µM: NCI-H226, 0.045 μM; for cytotoxicity at 0.13 µM: NCI-H226, 0.13 μM; for cytotoxicity at 0.41 µM: NCI-H226, 0.41 μM; for cytotoxicity at 1.23 µM: NCI-H226, 1.23 μM; for cytotoxicity at 3.7 µM: NCI-H226, 3.7 μM; for cytotoxicity at 11.11 µM: NCI-H226, 11.11 μM; for cytotoxicity at 33.33 µM: NCI-H226, 33.33 μM; for cytotoxicity at 100 µM: NCI-H226, 100 μM
How it was run: as §1

Compound	cytotoxicity at 72 h, 0.005 µM [4] [%]	cytotoxicity at 72 h, 0.015 µM [4] [%]	cytotoxicity at 72 h, 0.045 µM [4] [%]	cytotoxicity at 72 h, 0.13 µM [4] [%]	cytotoxicity at 72 h, 0.41 µM [4] [%]	cytotoxicity at 72 h, 1.23 µM [4] [%]	cytotoxicity at 72 h, 3.7 µM [4] [%]	cytotoxicity at 72 h, 11.11 µM [4] [%]	cytotoxicity at 72 h, 33.33 µM [4] [%]	cytotoxicity at 72 h, 100 µM [4] [%]	cytotoxicity at 0.005 µM [5] [%]	cytotoxicity at 0.045 µM [5] [%]	cytotoxicity at 0.13 µM [5] [%]	cytotoxicity at 0.41 µM [5] [%]	cytotoxicity at 1.23 µM [5] [%]	cytotoxicity at 3.7 µM [5] [%]	cytotoxicity at 11.11 µM [5] [%]	cytotoxicity at 33.33 µM [5] [%]	cytotoxicity at 100 µM [5] [%]	melting point [°C]	other results
O=C(NS(=O)(=O)c1nnc(N=Cc2ccc(O)cc2)s1)c1ccccc1 [Compound 9e, N-({5-[(4-Hydroxybenzylidene)amino]-1,3,4-thiadiazol-2-yl}sulfonyl)benzamide]	25.3	26.7	26.6	28.3	29.8	30.3	31.4	34.2	37.6	39.6	39.1	41.9	42.5	43.4	45.8	47.6	48.2	49.3	51.4	178 to 180	IC50 [1]: 47.9 ± 9.9 µM; IC50 [2]: 107 ± 18.1 µM; IC50 [3]: 136 ± 22.5 µM
COc1ccccc1C=Nc1nnc(S(=O)(=O)NC(=O)c2ccccc2)s1 [Compound 9c, N-({5-[(2-Methoxybenzylidene)amino]-1,3,4-thiadiazol-2-yl}sulfonyl)benzamide]	36.8	38.2	40.3	42.1	42.9	43.1	44.3	45.9	47.4	52.3	31.5	34.1	35.1	35.9	36.1	37.7	38.2	40.3	43.5		IC50 [1]: 196 ± 16.6 µM; IC50 [2]: 41.3 ± 4.23 µM; IC50 [3]: 128 ± 21.7 µM
O=C(NS(=O)(=O)c1nnc(N=Cc2ccccc2O)s1)c1ccccc1 [Compound 9f, N-({5-[(2-Hydroxybenzylidene)amino]-1,3,4-thiadiazol-2-yl}sulfonyl)benzamide]	32.5	33.1	34	35.1	36.4	37.1	37.4	37.9	39.8	42.8	30.3	32.4	33.4	35	35.7	36.9	37.1	38.7	40.4	220 to 222	IC50 [1]: 207 ± 17.4 µM; IC50 [2]: 80.6 ± 11.4 µM; IC50 [3]: 36.7 ± 14.4 µM
O=C(NS(=O)(=O)c1nnc(N=Cc2ccc(Cl)cc2)s1)c1ccccc1 [Compound 9b, N-({5-[(4-Chlorobenzylidene)amino]-1,3,4-thiadiazol-2-yl}sulfonyl)benzamide]	33.2	34.1	34.6	36.6	37.7	38	38.2	38.6	38.9	40.7	27.8	35.4	35.7	36.1	36.5	36.6	37	37.7	38	212 to 214	IC50 [1]: 93.3 ± 10.7 µM; IC50 [2]: 88.2 ± 11.1 µM; IC50 [3]: 76.3 ± 11.8 µM
COc1cc(C=Nc2nnc(S(=O)(=O)NC(=O)c3ccccc3)s2)ccc1O [Compound 9g, N-({5-[(4-Hydroxy-3-methoxybenzylidene)amino]-1,3,4-thiadiazol-2-yl}sulfonyl)benzamide]	25.4	27.6	28.5	30.3	31.1	32.1	32.8	33.5	34.1	38.6	32.7	34.1	35.1	36.3	37.5	38.6	39.2	39.8	42.5	252 to 254	
CN(C)c1ccc(C=Nc2nnc(S(=O)(=O)NC(=O)c3ccccc3)s2)cc1 [Compound 9h, N-[(5-{[4-(Dimethylamino)benzylidene]amino}-1,3,4-thiadiazol-2-yl)sulfonyl]benzamide]	32	32.9	34.5	34.8	35.1	35.7	35.7	36.2	36.9	37.6	32.9	35.4	36.3	36.4	37.2	37.5	37.9	39.2	40	236 to 238	
